CCOc1nc2cccc(C(=O)OC(C)OC(=O)OC3CCCCC3)c2n1Cc1ccc(-c2ccccc2-c2nn[nH]n2)cc1 (stereo not given)
solubility (mole fraction)
Details	293.15 K	298.15 K	303.15 K	308.15 K	313.15 K	323.15 K	333.15 K	343.15 K
in acetone	0.00673	0.00783	0.00946	0.0111	0.0133	–	–	–
in acetonitrile	0.000582	–	0.000912	–	0.0016	0.00263	0.00441	–
in ethanol	–	–	0.00144	–	0.00235	0.00465	0.00824	0.0118
